Like-named read-outs stand apart in the source and are kept apart here. One block for each compound: values may come before it.
Target: plasmepsin II (Plasmodium falciparum, UniProt P46925)
Assay: biochemical
Details: FRET, pH 5, 37° C., 40 min, substrate 1 μM, read-out: IC50 (nM) on plasmepsin II

Sequence of plasmepsin II (P46925 125-453): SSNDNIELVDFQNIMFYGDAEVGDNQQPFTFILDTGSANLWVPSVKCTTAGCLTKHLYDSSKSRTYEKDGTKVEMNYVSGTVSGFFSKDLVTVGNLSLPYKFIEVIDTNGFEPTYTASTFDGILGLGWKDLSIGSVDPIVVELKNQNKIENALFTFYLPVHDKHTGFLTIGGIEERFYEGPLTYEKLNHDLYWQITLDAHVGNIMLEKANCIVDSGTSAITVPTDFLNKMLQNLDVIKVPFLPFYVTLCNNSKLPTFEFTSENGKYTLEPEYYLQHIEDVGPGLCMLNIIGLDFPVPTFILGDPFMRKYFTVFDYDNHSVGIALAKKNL

Compound: CCCCCc1ccc(C(=O)N(Cc2ccc(-c3ccc4c(c3)OCO4)cc2)C2CCN(Cc3ccc(O)cc3)CC2)cc1 [Example 62, N-(4-Benzo[1,3]dioxol-5-yl-benzyl)-N-[1-(4-hydroxybenzyl)piperidin-4-yl]-4-pentylbenzamide]
IC50 (Additional Examples table): 90 nM

Compound: CCCCOc1ccc(C(=O)N(Cc2ccc(-c3ccccc3)cc2)C2CCN(Cc3ccccc3)CC2)cc1 [Example 15]
IC50 ([…]): 1300 nM

Compound: CCCCCc1ccc(C(=O)N(Cc2ccc(-c3ccc(OC)c(OC)c3)cc2)C2CCN(Cc3ccoc3)CC2)cc1 [Example 43, N-(3′,4′-Dimethoxybiphenyl-4-ylmethyl)-N-(1-furan-3-ylmethylpiperidin-4-yl)-4-pentylbenzamide]
IC50 (Additional Examples table): 31 nM

Compound: CCCCCc1ccc(C(=O)N(Cc2ccc(-c3ccncc3)cc2)C2CCN(Cc3ccccc3)CC2)cc1 [Example 66, N-(1-Benzylpiperidin-4-yl)-4-pentyl-N-(4-pyridin-4-ylbenzyl)benzamide]
IC50 (Additional Examples table): 104 nM

Compound: CCCCCc1ccc(C(=O)N(Cc2ccc(OCc3ccccc3)cc2)C2CCN(Cc3ccccc3)CC2)cc1 [Example 1]
IC50 ([…]): 70 nM

Compound: CCCCCc1ccc(C(=O)N(Cc2ccc(-c3ccc(OCCO)cc3)cc2)C2CCN(Cc3ccncc3)CC2)cc1 [Example 44, N-[4′-(2-Hydroxyethoxy)-biphenyl-4-ylmethyl]-4-pentyl-N-(1-pyridin-4-ylmethylpiperidin-4-yl)benzamide]
IC50 (Additional Examples table): 39 nM

Compound: CCCCCc1ccc(C(=O)N(Cc2ccc(-c3ccc4c(c3)OCO4)cc2)C2CCN(CC3=CCCCC3)CC2)cc1 [Example 57, N-(4-Benzo[1,3]dioxol-5-yl-benzyl)-N-(1-cyclohex-1-enylmethyl-piperidin-4-yl)-4-pentyl-benzamide]
IC50 (Additional Examples table): 75 nM

Compound: CCCCCc1ccc(C(=O)N(Cc2ccc(-c3ccccc3F)cc2)C2CCN(Cc3ccncc3)CC2)cc1 [Example 63, N-(2′-Fluorobiphenyl-4-ylmethyl)-4-pentyl-N-(1-pyridin-4-ylmethyl-piperidin-4-yl)benzamide]
IC50 (Additional Examples table): 95 nM

Compound: CCCCCCCCCCCC(=O)N(Cc1ccc(Oc2ccccc2)cc1)C1CCN(Cc2ccccc2)CC1 [Example 9]
IC50 ([…]): 1700 nM

Compound: CCCCCc1ccc(C(=O)N(Cc2ccc(-c3cccnc3)cc2)C2CCN(Cc3ccncc3)CC2)cc1 [Example 64, 4-Pentyl-N-(4-pyridin-3-yl-benzyl)-N-(1-pyridin-4-ylmethylpiperidin-4-yl)benzamide]
IC50 (Additional Examples table): 102 nM

Compound: CCCCCc1ccc(C(=O)N(Cc2ccc(-c3ccccc3)cc2)C2CCCN(Cc3ccccc3)CC2)cc1 (racemic) [Example 35]
IC50 ([…]): 1700 nM

Compound: CCCCCCCCCCCC(=O)N(Cc1ccc(OCc2ccccc2)c(OCc2ccccc2)c1)C1CCN(Cc2ccccc2)CC1 [Example 13]
IC50 ([…]): 2400 nM

Compound: CCCCCc1ccc(C(=O)N(Cc2ccc(-c3ccc(C#N)cc3)cc2)C2CCN(Cc3cccnc3)CC2)cc1 [Example 55, N-(4′-Cyanobiphenyl-4-ylmethyl)-4-pentyl-N-(1-pyridin-3-ylmethylpiperidin-4-yl)benzamide]
IC50 (Additional Examples table): 68 nM

Compound: CCCCCc1ccc(CN(Cc2ccc(-c3ccc(OCCO)cc3)cc2)C2CCN(Cc3ccccc3)CC2)cc1 [Example 33]
IC50 ([…]): 96 nM

Compound: CCCCCc1ccc(C(=O)N(Cc2ccc(OCCCC)cc2)C2CCN(Cc3ccccc3)CC2)cc1 [Example 25]
IC50 ([…]): 220 nM

Compound: CCCCCc1ccc(C(=O)N(Cc2ccc(-c3ccc4c(c3)OCO4)cc2)C2CCN(Cc3ccncc3)CC2)cc1 [Example 50, N-(4-Benzo[1,3]dioxol-5-yl-benzyl)-4-pentyl-N-(1-pyridin-4-ylmethylpiperidin-4-yl)benzamide]
IC50 (Additional Examples table): 54 nM

Compound: CCCCCc1ccc(C(=O)N(Cc2ccc(-c3cccnc3)cc2)C2CCN(CC3=CCCCC3)CC2)cc1 [Example 61, N-(1-Cyclohex-1-enylmethyl-piperidin-4-yl)-4-pentyl-N-(4-pyridin-3-yl-benzyl)benzamide]
IC50 (Additional Examples table): 89 nM

Compound: CCCCCCCCCCCC(=O)N(Cc1ccc(-c2ccccc2)cc1)C1CCN(Cc2ccccc2)CC1 [Example 16]
IC50 ([…]): 1300 nM

Compound: CCCCCc1ccc(C(=O)N(Cc2ccc(-c3cccnc3)cc2)C2CCN(Cc3ccoc3)CC2)cc1 [Example 54, N-(1-Furan-3-ylmethylpiperidin-4-yl)-4-pentyl-N-(4-pyridin-3-yl-benzyl)benzamide]
IC50 (Additional Examples table): 64 nM

Compound: CCCCCc1ccc(C(=O)N(Cc2ccc(-c3ccccc3)cc2)C2CCN(Cc3ccoc3)CC2)cc1 [Example 71, N-Biphenyl-4-ylmethyl-N-(1-furan-3-ylmethyl-piperidin-4-yl)-4-pentylbenzamide]
IC50 (Additional Examples table): 127 nM

Compound: CCCCCc1ccc(C(=O)N(Cc2ccc(-c3ccc4c(c3)OCO4)cc2)C2CCN(Cc3ccccc3)CC2)cc1 [Example 52, N-(4-Benzo[1,3]dioxol-5-yl-benzyl)-N-(1-benzylpiperidin-4-yl)-4-pentylbenzamide]
IC50 (Additional Examples table): 58 nM

Compound: CCCCCc1ccc(C(=O)N(Cc2ccc(-c3ccccc3)cc2)C2CCN(Cc3cccnc3)CC2)cc1 [Example 65, N-Biphenyl-4-ylmethyl-4-pentyl-N-(1-pyridin-3-ylmethylpiperidin-4-yl)benzamide]
IC50 (Additional Examples table): 103 nM

Now from value to compound:

IC50 (Additional Examples table): 211 nM
Compound: CCCCCc1ccc(C(=O)N(Cc2ccc(-c3cccnc3)cc2)C2CCN(Cc3cc4ccccc4o3)CC2)cc1 [Example 85, N-(1-Benzofuran-2-ylmethyl-piperidin-4-yl)-4-pentyl-N-(4-pyridin-3-yl-benzyl)benzamide]

IC50 (Additional Examples table): 692 nM
Compound: CCCCCc1ccc(C(=O)N(Cc2ccc(-c3ccccc3)cc2)C2CCN(Cc3ccc(OC(F)(F)F)cc3)CC2)cc1 [Example 110, N-Biphenyl-4-ylmethyl-4-pentyl-N-[1-(4-trifluoromethoxybenzyl)piperidin-4-yl]benzamide]

IC50 (Additional Examples table): 141 nM
Compound: CCCCCc1ccc(C(=O)N(Cc2ccc(OCc3ccccc3)cc2)[C@H]2CCN(Cc3ccccc3)C2)cc1 [Example 75, N-(4-Benzyloxybenzyl)-N-((3S)-1-benzylpyrrolidin-3-yl)-4-pentylbenzamide]

IC50 (Additional Examples table): 168 nM
Compound: CCCCCc1ccc(C(=O)N(Cc2ccc(-c3ccccn3)cc2)C2CCN(Cc3ccoc3)CC2)cc1 [Example 78, N-(1-Furan-3-ylmethylpiperidin-4-yl)-4-pentyl-N-(4-pyridin-2-yl-benzyl)benzamide]

IC50 (Additional Examples table): 319 nM
Compound: CCCCCc1ccc(C(=O)N(Cc2ccc(-c3ccccc3)cc2)C2CCN(Cc3cccc(C(F)(F)F)c3)CC2)cc1 [Example 96, N-Biphenyl-4-ylmethyl-4-pentyl-N-[1-(3-trifluoromethylbenzyl)piperidin-4-yl]benzamide]

IC50 (Additional Examples table): 209 nM
Compound: CCCCCc1ccc(C(=O)N(Cc2ccc(-c3ccccn3)cc2)C2CCN(Cc3ccccc3)CC2)cc1 [Example 84, N-(1-Benzylpiperidin-4-yl)-4-pentyl-N-(4-pyridin-2-yl-benzyl)benzamide]

IC50 (Additional Examples table): 192 nM
Compound: CCCCCc1ccc(C(=O)N(Cc2ccc(-c3ccccc3)cc2)C2CCN(Cc3ccc(O)cc3)CC2)cc1 [Example 81, N-Biphenyl-4-ylmethyl-N-[1-(4-hydroxybenzyl)piperidin-4-yl]-4-pentylbenzamide]

IC50 (Additional Examples table): 204 nM
Compound: CCCCCc1ccc(C(=O)N(Cc2ccc(OC(C)C)cc2)C2CCN(Cc3ccccc3)CC2)cc1 [Example 83, N-(1-Benzylpiperidin-4-yl)-N-(4-isopropoxybenzyl)-4-pentylbenzamide]

IC50 (Additional Examples table): 618 nM
Compound: CCCCCc1ccc(CN(Cc2ccc(-c3cncnc3)cc2)C2CCN(Cc3ccccc3)CC2)cc1 [Example 107, (1-Benzylpiperidin-4-yl)-(4-pentyl-benzyl)-(4-pyrimidin-5-ylbenzyl)amine]

IC50 (Additional Examples table): 361 nM
Compound: CCCCCc1ccc(C(=O)N(Cc2ccc(-c3ccccc3)cc2)C2CCN(Cc3ccccc3O)CC2)cc1 [Example 99, N-Biphenyl-4-ylmethyl-N-[1-(2-hydroxybenzyl)piperidin-4-yl]-4-pentylbenzamide]

IC50 (Additional Examples table): 882 nM
Compound: CCCCCc1ccc(C(=O)N(Cc2ccc(O)cc2)C2CCN(Cc3ccccc3)CC2)cc1 [Example 116, N-(1-Benzylpiperidin-4-yl)-N-(4-hydroxybenzyl)-4-pentyl-benzamide]

IC50 (Additional Examples table): 816 nM
Compound: CCCCCc1ccc(C(=O)N(Cc2ccc(-c3cccc(OC(F)(F)F)c3)cc2)C2CCN(Cc3ccccc3)CC2)cc1 [Example 113, N-(1-Benzylpiperidin-4-yl)-4-pentyl-N-(3′-trifluoromethoxy-biphenyl-4-ylmethyl)benzamide]

IC50 (Additional Examples table): 281 nM
Compound: CCCCCc1ccc(C(=O)N(Cc2ccc(OCc3ccccc3)cc2O)C2CCN(Cc3ccccc3)CC2)cc1 [Example 92, N-(4-Benzyloxy-2-hydroxy-benzyl)-N-(1-benzylpiperidin-4-yl)-4-pentylbenzamide]

IC50 (Additional Examples table): 656 nM
Compound: CCCCCc1ccc(CN(Cc2ccc(-c3ccccc3F)cc2)C2CCN(Cc3ccccc3)CC2)cc1 [Example 109, (1-Benzylpiperidin-4-yl)-(2′-fluoro-biphenyl-4-ylmethyl)-(4-pentyl-benzyl)amine]

IC50 (Additional Examples table): 414 nM
Compound: CCCCCc1ccc(CN(Cc2ccc(OCc3ccc(F)cc3)cc2)C2CCN(Cc3ccccc3)CC2)cc1 [Example 102, (1-Benzylpiperidin-4-yl)-[4-(4-fluorobenzyloxy)benzyl]-(4-pentylbenzyl)amine]

IC50 (Additional Examples table): 284 nM
Compound: CCCCCc1ccc(C(=O)N(Cc2ccc(OCC)cc2)C2CCN(Cc3ccccc3)CC2)cc1 [Example 94, N-(1-Benzylpiperidin-4-yl)-N-(4-ethoxybenzyl)-4-pentylbenzamide]

IC50 (Additional Examples table): 322 nM
Compound: CCCCCc1ccc(C(=O)N(Cc2ccc(OC)cc2)C2CCN(Cc3ccccc3)CC2)cc1 [Example 98, N-(1-Benzylpiperidin-4-yl)-N-(4-methoxybenzyl)-4-pentyl-benzamide]

IC50 (Additional Examples table): 176 nM
Compound: CCCCCc1ccc(C(=O)N(Cc2ccc(-c3ccccn3)cc2)C2CCN(Cc3ccncc3)CC2)cc1 [Example 79, 4-Pentyl-N-(4-pyridin-2-yl-benzyl)-N-(1-pyridin-4-ylmethylpiperidin-4-yl)benzamide]

IC50 (Additional Examples table): 128 nM
Compound: CCCCCc1ccc(C(=O)N(Cc2ccc(-c3cccnc3)cc2)C2CCN(Cc3ccc(CO)o3)CC2)cc1 [Example 72, N-[1-(5-Hydroxymethyl-furan-2-ylmethyl)piperidin-4-yl]-4-pentyl-N-(4-pyridin-3-ylbenzyl)benzamide]

IC50 (Additional Examples table): 196 nM
Compound: CCCCCc1ccc(C(=O)N(Cc2ccc(-c3ccccc3)cc2)C2CCN(CC3=CCCCC3)CC2)cc1 [Example 82, N-Biphenyl-4-ylmethyl-N-(1-cyclohex-1-enylmethylpiperidin-4-yl)-4-pentylbenzamide]

From patent US20040102431A1, “Substituted amino-aza-cycloalkanes useful against malaria” (priority 2000, published 2004)
